Source: US8263406B2, “Enriched or purified population of motor neurons and its preparation from a population of embryonic stem cells” (Cornell Research Foundation, Inc., priority 2003, dated 2012)

System: hES cells
Test: Induction of motor neurons from hES cell-derived embryoid bodies, quantified by immunocytochemistry
Assay type: cell-based, human
Conditions: H1 hES-derived EBs, RA 10 uM
From the text: A modified version of the protocol described in Wichterle et al., “Directed Differentiation of Embryonic Stem Cells into Motor Neurons,” Cell 110:385-397 (2002), which is hereby incorporated by reference in its entirety, was used for induction and differentiation of motor neurons from hES cells (FIG. 1A). For caudalization and specification to motor neurons, 90% confluent hES cell cultures were dissociated to form embryoid bodies (EB) in suspension dishes (Ultra low cluster 6 well plates, […], Mass.). Fresh RA was added every day and fresh medium along with SHH replaced every 72 hrs. After 6-8 days, differentiation of motor neurons was induced by plating the spheres formed onto poly-ornithin/fibronectin coated plates in DMEM/F12 supplemented with N2 (Gibco), GDNF (20 ng/ml), BDNF (20 ng/ml), or neurotrophin 4 (NT4) (20 ng/ml), CNTF (20 ng/ml), B27 (1X) and 2% FBS. After 7-14 days, cultures were either fixed for immunocytochemistry or used for physiology.
Cells were stained at different stages of culture for the following: Tra 1-81 (Mouse IgG, 1:200), SSEA-4 (supernatant, mouse IgG, 1:50, DSHB), βIII-tubulin (mouse IgG; 1:400, Covance), Islet1 (supernatant, mouse IgG, 1:50, Developmental Studies Hybridoma Bank from the University of Iowa (DSHB)), Hb9 (supernatant, mouse IgG, 1:50, DSH), ChAT (Rabbit IgG, 1:200, Chemicon), desmin (Rabbit IgG, 1:200, Sigma), and GFP (mouse IgG, 1:100). […]
To determine if hES cells had the capacity to respond to the caudalizing effects of RA and the ventralizing effects of SHH to generate MNs (Wichterle et al., “Directed Differentiation of Embryonic Stem Cells into Motor Neurons,” Cell 110:385-397 (2002), which is hereby incorporated by reference in its entirety), hES cells were raised to 90% confluency before inducing them to form EBs in suspension cultures. […] After a week in a differentiated condition, the cells were fixed and the percentage of βIII-tubulin expressing neurons was determined. […]

CC1=C(/C=C/C(C)=C/C=C/C(C)=C/C(=O)O)C(C)(C)CCC1 [RA+/SHH−, all-trans retinoic acid]
percentage of neurons (βIII-tubulin expressing) generated from the differentiated EBs (8-9 days in suspension, one week differentiation with FBS/B27/BDNF/GDNF/CNTF, of total population): around 30%
percentage of βIII-tubulin expressing neurons that expressed islet-1/ChAT (SHH 200 nM where present, FIG. 2E): 3%-10%
percentage of βIII-tubulin expressing neurons that expressed Hb9 (SHH 200 nM where present, FIG. 2F): 3%-6%
